Assay results taken from article PMC8795383, “Docking-guided rational engineering of a macrolide glycosyltransferase glycodiversifies epothilone B” (Communications Biology, 2022).
≈ marks a conversion by molar mass, not a printed value. Like-named read-outs stand apart in the source and are kept apart here.

Key:
[1] = tested on: liver carcinoma cell line HepG2; assay: MTT antitumor assay; type: cell-based, human
Source text: (§1) NDP-glucose (UDPG, ADPG, TDPG, and GDPG), UDP-N-acetylglucosamine (UDP-GlcNAc), UDP-galactose (UDP-Gal), and UDP-glucuronic acid (UDP-GlcA) were purchased from Sigma-Aldrich (St. Louis, MO, USA). UDP-GlcNAz, UDP-GalNAz, UDP-GlcNTFA, UDP-GalNTFA, UDP-GalNAc, UDP-GalA, CMP-Neu5Ac, GDP-Fuc and GDP-Man were kindly provided by Professor Junqiang Fang[59]–[63]. Epothilone B was purchased from Zhejiang Hisun Pharmaceutical Co., Ltd. The human liver carcinoma cell line HepG2 and human hepatocyte cell line HL-7702 were purchased from Gaining (Gaining Bio. Co., Ltd, Shanghai, China). The cells were cultivated in T-25 flasks in a Thermo Scientific CO2 incubator in a humidified environment at 37°C and 5% CO2. HepG2 cells were preserved in DMEM (Gibco, Thermo Fisher Scientific, Waltham, MA, USA), while HL-7702 cells were preserved in RPMI-1640 (Gibco, Thermo Fisher Scientific, Waltham, MA, USA). All cultures contained 10% fetal calf serum and 1% penicillin C/streptomycin. All chemicals and reagents are of analytical grade.
(§2) By using the MTT colorimetric assay, the antitumor and cytotoxicity of EpoB and its glucosides were tested against the liver carcinoma cell line HepG2 and hepatocyte cell line HL-7702, respectively. The cells were seeded in a 96-well microtiter plate, and the wall-attached cells were treated with varying concentrations of drugs by dilution from 300 μM to 0.1 μM for EpoB glycosides (dissolved in DMSO). After 48 h of incubation with the test compounds, the cultures were treated with MTT (2 mg/mL) solution, and the cells were incubated for an additional 4 h at 37°C until a purple precipitate was visible. The purple formazan crystals were dissolved in DMSO, and the absorbance of each sample was measured at 492 nm using a microplate reader. All MTT assay experiments were performed in triplicate, and IC50 values were calculated using GraphPad Prism software (Version 6.01)[26].

[2] = tested on: hepatocyte cell line HL-7702; assay: MTT cytotoxicity assay; type: cell-based, human
Source text: as §1, §2

[3] = tested on: HepG2 cells; assay: Immunofluorescence confocal imaging of tubulin; type: cell-based, human; conditions: HepG2, 24 h
Procedure: Freshly trypsinized HepG2 cells (1 × 10^4−1 × 10^5) were seeded in a 12-well plate and cultivated for 24 h with DMEM (Gibco, Thermo Fisher Scientific, Waltham, MA, USA). Cells were treated with EpoB and 1a at different concentrations (50 nM, 500 nM, and 5 μM) according to the IC50 values for 24 h. The supernatants were removed, and the cells were washed with PBS buffer 2–3 times. The cells were further fixed with 4% paraformaldehyde for 1 h and then permeabilized with 0.2% Triton X-100 (diluted in PBS buffer) for 10 min. Next, the cells were blocked with bovine serum albumin (BSA) for 30 min and incubated with a primary antibody against β-tubulin (1:50, diluted in 2% BSA, β-tubulin Rabbit Monoclonal Antibody, Beyotime Biotechnology) for 1 h at room temperature. After that, the cells were treated with Alexa Fluor 488 goat anti-rabbit IgG (H + L) (secondary antibody, 1:500, diluted in 2% BSA, Beyotime Biotechnology) for another 1 h. The supernatants were removed, the cells were washed, and the nuclei were labeled with DAPI for 10 min. Images were collected using an Olympus BX81 fluorescence microscope system (Olympus, Tokyo, Japan) and a confocal microscope (UltraVIEW®VoX).

[4] = tested on: HepG2 cells; assay: Cellular intake assay (HPLC-DAD); type: in vitro ADME, human; conditions: HepG2, 5 μM, 1 h
Procedure: HepG2 cells (1 × 10^5−1 × 10^6 cells/mL) were cultivated overnight at 37°C and then treated with 5 μM EpoB and glycosides for 1 h. After removing the supernatant, the cells were sequentially rinsed with PBS buffer, trypsinized, and then washed with DMEM. Next, the cells were suspended in acetone, disrupted by ultrasonication, and centrifuged at 12000 rpm for 10 min to remove the debris. The resulting supernatants were dried with nitrogen and then redissolved in 200 μL of methanol. Finally, the compounds were analyzed by HPLC-DAD at 249 nm. Each experiment was conducted in three replicates. The concentrations of EpoB and its glycosides (cellular intake) were calculated based on the linear fitting regression equations of the HPLC peak areas.

[5] = physchem; type: physicochemical; conditions: water
Procedure: The water solubility of EpoB and its glycosides was determined using the minimum shake-flask solubility method[26],[75].

[6] = biological target: T1, BsGT-1 F231S (Bacillus subtilis, UniProt O34539, F231S); assay: Glycosylation kinetics, BsGT-1 F231S mutant; type: biochemical; conditions: EpoB converted to 1h, sugar donor 2h
T1 construct: made in house; host or cells: E. coli BL21 (DE3)
Procedure: (§3) Kinetic parameters of BsGT-1 and its mutants for the glycosylation of epothilone B were measured in a reaction mixture (50 μl) containing 20 μg/mL protein, saturated sugar donors, different concentrations of epothilone B, and 50 mM Tris–HCl buffer (50 mM Tris–HCl, pH 7.5, 10 mM MgCl2) at 37°C for 10 min in triplicate. The kinetic values were determined by fitting the Michaelis–Menten curve to the data using the nonlinear regression method (Supplementary Figs. 13–14).

[7] = biological target: T2, BsGT-1 Q318C (Bacillus subtilis, UniProt O34539, Q318C); assay: Glycosylation kinetics, BsGT-1 Q318C mutant; type: biochemical; conditions: EpoB converted to 1e, sugar donor 2e
T2 construct: made in house; host or cells: E. coli BL21 (DE3)
Procedure: as §3

[8] = biological target: T3, BsGT-1 M296A (Bacillus subtilis, UniProt O34539, M296A); assay: Glycosylation kinetics, BsGT-1 M296A mutant; type: biochemical; conditions: EpoB converted to 1i, sugar donor 2i
T3 construct: made in house; host or cells: E. coli BL21 (DE3)
Procedure: as §3

[9] = biological target: T4, BsGT-1 I62A (Bacillus subtilis, UniProt O34539, I62A); type: biochemical; conditions: EpoB converted to 1a, sugar donor 2a
T4 construct: made in house; host or cells: E. coli BL21 (DE3)
Procedure: as §3

[10] = read-out: IC50 HepG2, MTT, 48 h
[11] = read-out: IC50 HL-7702, MTT, 48 h
[12] = Homo sapiens, HepG2, 48 h, read-out: IC50 HepG2, MTT, 48 h
[13] = 25 °C, thermodynamic from solid, read-out: Solubility
[14] = Homo sapiens, L02, 48 h, read-out: IC50 HL-7702, MTT, 48 h

Structure (SMILES) | IC50 [1, 10] | IC50 [2, 11] | solubility ([5]; 25°C) | IC50 [1, 12] | solubility [5, 13] | IC50 [2, 14] | further results
CC(=Cc1csc(C)n1)C1CC2OC2(C)CCCC(C)C(OC2OC(CO)C(O)C(O)C2O)C(C)C(=O)C(C)(C)C(O)CC(=O)O1 (stereo not drawn) [1a, EpoB 7-O-β-D glucoside] | 9.84 ± 0.57 µM | 27.6 ± 1.76 µM | 1550 ± 90 µg/mL (≈ 2.31 mM) | – | – | – | penetration into tumor cells and interaction with tubulin [3]: could penetrate into the tumor cells and interact with tubulin; cellular intake rate, lower than that of EpoB [4]: 12 fold
CC(=Cc1csc(C)n1)C1CC2OC2(C)CCCC(C)C(OC2OC(CO)C(O)C(OC3OC(CO)C(O)C(O)C3O)C2O)C(C)C(=O)C(C)(C)C(O)CC(=O)O1 [1b, EpoB 7-O-β-D-glucosyl-(1 → 3)-β-D glucoside] | – | – | – | > 100 µM | 86400 ± 1450 µg/mL (≈ 104 mM) | – | –
C/C(=C\c1csc(C)n1)[C@@H]1C[C@@H]2O[C@]2(C)CCC[C@H](C)[C@H](O)[C@@H](C)C(=O)C(C)(C)[C@@H](O)CC(=O)O1 [EpoB, epothilone B] | 0.00139 ± 0.0003 µM | 0.00293 ± 0.00053 µM | – | < 0.002 µM | – | < 0.003 µM | Km [6]: 127 ± 12.9 µM; kcat [6]: 0.0723 ± 0.0033 s⁻¹; Km [7]: 95.9 ± 7.98 µM; kcat [7]: 0.164 ± 0.00367 s⁻¹; Km [8]: 147 ± 17 µM; kcat [8]: 0.0555 ± 0.003 s⁻¹; solubility ([5]; thermodynamic from solid, 25°C, read-out: Solubility): 190 ± 30 µg/mL (≈ 0.374 mM); Km [9]: 43.6 ± 4.16 µM; kcat [9]: 0.3975 ± 0.023 s⁻¹
CC(=Cc1csc(C)n1)C1CC2OC2(C)CCCC(C)C(OC2OC(CO)C(O)C(O)C2O)C(C)C(=O)C(C)(C)C(O)CC(=O)O1 (stereo not shown) [1i] | 1.09 ± 0.26 µM | 9.13 ± 1.02 µM | 3370 ± 550 µg/mL (≈ 5.03 mM) | – | – | – | activity higher than that of glucose-modified EpoB (1a) ([1]; HepG2, relative to 1a): ~10 fold; cellular intake rate, lower than that of EpoB [4]: 8 fold
CC(=Cc1csc(C)n1)C1CC2OC2(C)CCCC(C)C(OC2OC(CO)C(O)C(O)C2OC2OC(CO)C(O)C(O)C2O)C(C)C(=O)C(C)(C)C(O)CC(=O)O1 [1c, EpoB 7-O-β-D-glucosyl-(1 → 2)-β-D glucoside] | – | – | – | 34.2 ± 4.16 µM | 83000 ± 1540 µg/mL (≈ 99.8 mM) | 46.6 ± 0.48 µM | –
CC(=O)NC1C(OC2C(C)CCCC3(C)OC3CC(C(C)=Cc3csc(C)n3)OC(=O)CC(O)C(C)(C)C(=O)C2C)OC(CO)C(O)C1O (stereo not shown) [1e] | – | – | – | 19.8 ± 0.88 µM | 8220 ± 930 µg/mL (≈ 11.6 mM) | 31.1 ± 3.77 µM | –
C/C(=C\c1csc(C)n1)[C@@H]1C[C@@H]2O[C@]2(C)CCC[C@H](C)[C@H](O[C@@H]2O[C@H](CO)[C@@H](O[C@@H]3O[C@H](CO)[C@@H](O)[C@H](O)[C@H]3O[C@@H]3O[C@H](CO)[C@@H](O)[C@H](O)[C@H]3O)[C@H](O)[C@H]2O)[C@@H](C)C(=O)C(C)(C)[C@@H](O)CC(=O)O1 [1d, epothilone B 7-O-β-D-glucosyl-(1 → 2)-β-D-glucosyl-(1 → 4)-β-D glucoside] | – | – | 184830 ± 3500 µg/mL (≈ 186 mM) | – | – | – | IC50 ([1]; MTT, 48 h, read-out: IC50 HepG2): 38.2 ± 2.41 µM; IC50 ([2]; MTT, 48 h, read-out: IC50 HL-7702): 42.8 ± 1.15 µM
CC(=Cc1csc(C)n1)C1CC2OC2(C)CCCC(C)C(OC2OC(CO)C(O)C(O)C2NC(=O)CN=[N+]=[N-])C(C)C(=O)C(C)(C)C(O)CC(=O)O1 (stereo not shown) [1h] | – | – | – | 30.2 ± 2.91 µM | 4340 ± 540 µg/mL (≈ 5.77 mM) | 40.4 ± 1.73 µM | –
